The subject of one data set is ROS in mesangial cells. The data set can be described thus: Determination of reactive oxygen species (ROS) in LPS-treated mesangial cells. The format is cell-based, Mouse. Particulars: in 5 minutes; for inhibition at 0.012 µg/mL / inhibition at 0.048 µg/mL: Mus musculus, Mesangial cell, 5 min, read-out: Inhibiting ROS %; for effect for inhibiting ROS / anti-oxidative effect (in words): 0.012 μg/ml and 0.048 μg/ml. The procedure: Determination of ROS was by detecting the intensity of fluorescence from an oxide of 2′,7′-dichlorofluorescein diacetate (2′,7′-dichlorofluorescein diacetate). The mesangial cells was treated as compounds which are to be measured, and 2′,7′-dichlorofluorescein diacetate (2 μM) was added to react for 30 minutes. After reaction for 30 minutes, LPS was added at specific time. Then, the signals were determined by […] (Bio-Rad Laboratories, Inc) with exciting wavelength of 485 nm and emitting wavelength of 530 nm.
Because ROS was inseparably related to kidney diseases, the results for determination of ROS in the aforementioned cells were shown in FIG. 2A-2F.

Another data set concerns MCP-1. The data set can be described thus: Anti-inflammatory response: MCP-1 in supernatant by ELISA. The class given is cell-based, Mouse. The conditions noted are these: for anti-inflammation (MCP-1) inhibition effect (in words): 0.012 μg/ml and 0.048 μg/ml; for inhibition at 0.012 µg/mL / inhibition at 0.048 µg/mL: Mus musculus, read-out: Inhibited MCP-1 level. The procedure: It is known that MCP1 plays an important role in interstitial inflammation, tubular atrophy, and kidney fibrosis. Therefore, by performing the protein test, the effects of Antrodia camphorata about anti-inflammation for the cells in kidney can be determined.
According to the manual, MCP-1 in the supernatant was detected by ELISA kits (Biosciences, Los Angeles, Calif., USA) and was determined by ELISA reader (Bio-Tek) (for wavelength absorbance of 450 nm). * * * indicated as p<0.005, NS indicated.

Data set [1] has as its system mesangial cells (Mouse MC line CRL-1927). As to the kind of experiment: MTT cell viability assay using mesangial cells. The conditions noted are these: all chosen concentrations (0.01~200 μg/ml), 48 hours, FIGS. 1A-1F. For orientation: Tetrazolium assays rely on reduction of a dye to a coloured formazan, in cell work by metabolically active cells.
Procedure: Here, Mouse MC line CRL-1927 was used in order to proceed the subsequent experiments. The cell line was derived from American Type Culture Collection (Rockville, Md., USA), and then was operated regular culture with a culture medium consisted of Dulbecco's modified Eagle's medium and Ham's F-12 medium with 3:1 ratio, and adding 5% fetal bovine serum and 14 mM HEPES.
The aforementioned cell line was cultured in the culture medium for 24 hours. The cells after hyperplasia were washed once with PBS, and treated with 1 time trypsin-EDTA, and followed by centrifuging at 1,200 rpm for 5 minutes, and the cells sedimented to form the cell pellet and the supernatant was removed. Then, 10 ml fresh medium was added, and the cells were re-suspended by shaking slightly. The cells were placed in 96-well microplate. When they were tested, 0.01˜200 μg/ml compounds from Antrodia camphorata were added into each of the well. The cells were incubated at 37° C. with 5% CO2 for 48 hours. Subsequently, 5 mg/ml 3-(4,5-dimethylthiazol-2-yl)-2,5-diphenyltetrazolium bromide (MTT) were added into the each well to react in the dark environment for 2 hours. Furthermore, in order to calculate the survival rate of the cells, the absorbance at wavelength of 570 nm was determined by enzyme-linked immunosorbent assay, and then the needed concentration for the half growth inhibition ratio (IC50) was calculated. […]

Regarding `COC1=C(OC)C(O)C(CC=C(C)CCC=C(C)CC(O)C=C(C)C)C(C)C1=O` (centres unmarked) [Antrocamol LT1, 4-hydroxy-5-[9-hydroxy-3,7,11-trimethyldodeca-2,6,10-trienyl]-2,3-dimethoxy-6-met hyl-cyclohex-2-enone], the figures for the inhibition at 0.012 µg/mL in the data set with ROS in mesangial cells (0.012 μg/ml) and in the data set on MCP-1 (0.012 μg/ml) were 3% and 0%, respectively. For the same compound, the inhibition at 0.048 µg/mL in the data set with ROS in mesangial cells (0.048 μg/ml) was found to be 14%; with MCP-1 (0.048 μg/ml) it was 0%. Further, the “anti-inflammation (MCP-1) inhibition effect (in words)” value in the data set with MCP-1 is “did not have the effects of inhibition”.

In the case of `COC1=C(OC)C(OC(C)=O)C(CC=C(C)CCC=C(C)CC(O)C=C(C)C)C(C)C1=O` (centres unmarked) [Antrocamol LT2, 4-acetoxy-5-[9-hydroxy-3,7,11-trimethyldodeca-2,6,10-trienyl]-2,3-dimethoxy-6-met hyl-cyclohex-2-enone], the inhibition at 0.012 µg/mL in the data set on ROS in mesangial cells (0.012 μg/ml) and in the data set on MCP-1 (0.012 μg/ml) was 0% throughout. In addition, the inhibition at 0.048 µg/mL in the data set with ROS in mesangial cells (0.048 μg/ml) and in the data set with MCP-1 (0.048 μg/ml) was 0% in each case. In addition, the “anti-inflammation (MCP-1) inhibition effect (in words)” value in the data set on MCP-1 is on record as “did not have the effects of inhibition”.

With Antroquinonol B, the “effect on mesangial cell growth (MTT cell viability)” value in data set [1] is “did not affect mesangial cells to grow”. Moreover, the “effect for inhibiting ROS / anti-oxidative effect (in words)” value with ROS in mesangial cells is on record as “exhibited anti-oxidation for nephritis cells”. Further, the “Inhibiting ROS %” value was found to be 0% with ROS in mesangial cells (0.012 μg/ml) and 12.5% in the data set on ROS in mesangial cells (0.048 μg/ml). In addition, the “Inhibited MCP-1 level” value in the data set on MCP-1 (0.012 μg/ml) and in the data set with MCP-1 (0.048 μg/ml) was 0% each time. Further, the “anti-inflammation (MCP-1) inhibition effect (in words)” value in the data set on MCP-1 is given as “did not have the effects of inhibition”.

Take 4-acetyl-Antroquinonol B: the “effect on mesangial cell growth (MTT cell viability)” value in data set [1] is given as “did not affect mesangial cells to grow”. In addition, the “effect for inhibiting ROS / anti-oxidative effect (in words)” value in the data set on ROS in mesangial cells is “exhibited anti-oxidation for nephritis cells”. The “Inhibiting ROS %” value in the data set on ROS in mesangial cells (0.012 μg/ml) was 5%; in the data set on ROS in mesangial cells (0.048 μg/ml), 12%. Further, the “Inhibited MCP-1 level” value in the data set with MCP-1 (0.012 μg/ml) and with MCP-1 (0.048 μg/ml) was 0% in each case.

For `COC1=C(OC)[C@H](O)[C@H](C/C=C(\C)CC/C=C(\C)C/C=C/C(C)(C)O)[C@@H](C)C1=O` [Antrocamol LT3, (4R,5R,6R)-4-hydroxy-5-[(2E,6E,9E)-11-hydroxy-3,7,11-trimethyldodeca-2,6,9-trienyl]-2,3-dimethoxy-6-methylcyclohex-2-enone], the “effect for inhibiting ROS / anti-oxidative effect (in words)” value in the data set with ROS in mesangial cells is on record as “did not have the inhibiting effect”. Moreover, the inhibition at 0.012 µg/mL in the data set with ROS in mesangial cells (0.012 μg/ml) and in the data set with MCP-1 (0.012 μg/ml) was 0% in each case. Also, the inhibition at 0.048 µg/mL with ROS in mesangial cells (0.048 μg/ml) worked out at 0%; in the data set with MCP-1 (0.048 μg/ml) it was 40.2%. Further, the “anti-inflammation (MCP-1) inhibition effect (in words)” value with MCP-1 is given as “better effect for inhibiting MCP-1 level”.

Take `COC1=C(OC)[C@H](O)[C@H](C/C=C(\C)CC/C=C(\C)CCC=C(C)C)[C@@H](C)C1=O` [Antroquinonol, reference compound]: the “effect for inhibiting ROS / anti-oxidative effect (in words)” value with ROS in mesangial cells is “did not have the inhibiting effect”. The inhibition at 0.012 µg/mL in the data set on ROS in mesangial cells (0.012 μg/ml) and with MCP-1 (0.012 μg/ml) was 0% throughout. The inhibition at 0.048 µg/mL in the data set with ROS in mesangial cells (0.048 μg/ml) and in the data set on MCP-1 (0.048 μg/ml) was 0% each time. In addition, the “anti-inflammation (MCP-1) inhibition effect (in words)” value in the data set with MCP-1 was “did not have the effects of inhibition”.

These data come from patent publication US9249117B2, “Use of compounds from Antrodia camphorata in manufacturing medicaments for treating kidney diseases” (priority 2014, dated 2016).
